The text below walks through data of patent US20090325978A1, “STABLE LYOPHILIZED PREPARATION” (priority 2006, published 2009).

Data set [1] relates to VEGF (vascular endothelial growth factor) production. The settings on record: low-oxygen state in vitro; cited from earlier work.
Data set [2] deals with solid tumor cell. The settings on record: in vivo; cited from earlier work.
Data set [3] is described as follows: pKa of the compound represented by formula (1). It is filed as physicochemical.
The nature of data set [4]: formulation study of the compound represented by formula (1): stability and crystal dissolution. It is filed as physicochemical.
Data set [5] in a line: solubility of the compound represented by formula (1) in pH regulating solution, HPLC. As to conditions: thermodynamic from solid, 50 mM citric acid pH regulator with sucrose and polyethylene glycol 600, 1 hour at 5° C. Format: physicochemical. Here is the method: 0.525 g of citric acid monohydrate was dissolved in injection-use distilled water, and a sodium hydroxide solution was used to adjust the pH while 5 g of sucrose and 1 g of polyethylene glycol 600 (stabilizer) were dissolved, thereby preparing 50 mL of various 50 mM pH regulators (with a pH of 5.6, 5.8, 6.0, 6.2, 6.4, or 6.6) containing sucrose and the stabilizer. 3 mL of the pH regulating solution thus prepared was put into a 5 mL vial containing approximately 9 mg of the compound represented by formula (1), and this was stored for 1 hour at 5° C. while being stirred. Thereafter, the solution (including a suspension) was filtered (0.22 μm filter), the first 1 mL of the filtrate was discarded, and the solution thus obtained was subjected to high-performance liquid chromatography (HPLC) to measure the concentration of the compound represented by formula (1), which was termed the solubility of the compound represented by formula (1). The pH of the solution was also measured at the same time.

Bounds are passed on as bounds.

As a reminder, the pKa is the pH at which an ionisable group is half protonated. A low value points to a stronger acid or weaker base. A word on the solubility: it is how much of the substance goes into solution per volume. Higher therefore signals much dissolved substance. For `CCC(O)C(C)C1OC1CC(C)(O)/C=C/C=C(\C)C1OC(=O)CC(O)CCC(C)(O)C(OC(=O)N2CCN(C3CCCCCC3)CC2)/C=C/C1C` (stereo not drawn) [compound represented by formula (1), (8E,12E,14E)-7-((4-cycloheptylpiperazin-1-yl)carbonyl)oxy-3,6,16,21-tetrahydroxy-6, 10,12,16,20-pentamethyl-18,19-epoxytricosa-8,12,14-trien-11-olide], the “action on VEGF production” value in data set [1] is given as “suppressing VEGF (vascular endothelial growth factor) production”. Moreover, in data set [2], the “action on solid tumor cell proliferation” value is listed as “suppressing solid tumor cell proliferation”. Further, the pKa in data set [3] is ~7.9. In addition, in data set [4], the “stability in the form of a crystalline powder” value is “good stability”. In data set [4] (formulation of an injection), the stability in solution entry was “not sufficiently stable”. Moreover, the crystal dissolution entry in data set [4] (packed powder) is “slow”. In addition, the solubility at 1 h in data set [5] (aqueous with cosolvent or surfactant or cyclodextrin, pH 5.79) was > 2440 µg/mL; in data set [5] (aqueous with cosolvent or surfactant or cyclodextrin, pH 5.99), > 2310 µg/mL; in data set [5] (aqueous with cosolvent or surfactant or cyclodextrin, pH 6.51), > 2720 µg/mL; in data set [5] (aqueous with cosolvent or surfactant or cyclodextrin, pH 6.81), 2570 µg/mL; in data set [5] (aqueous with cosolvent or surfactant or cyclodextrin, pH 7.04), 1800 µg/mL; in data set [5] (pH 6.2, aqueous with cosolvent or surfactant or cyclodextrin, pH 6.20), > 2260 µg/mL.
